Measurements taken from PubChem BioAssay AID2060604 (Molecular Pharmacology Branch, DTP, NCI, 2025).

Test system: 379773-124-R-J2-PDC complex spheroids, viability % test/control
Assay: Anticancer human tumor 379773-124-R-J2-PDC patient-derived endometrial carcinoma cell line growth inhibition [CLK]
Settings: for IC50: curve of first compound; for viability, T/C: stronger effect = lower value
How it was run: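 Patient-derived tumor cells grown as complex spheroids with HUVEC endothelial cells and mesenchymal stem cells, treated with drug combinations. Concentrations descend in half-log steps from near clinical Cmax, or from 10 microM if Cmax unknown.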
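Further: compound exposure lasted seven days before the viability readout.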
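Wherever viability, T/C is given: 100% = DMSO vehicle control wells.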

## CC(C)CC(NC(=O)C(Cc1ccccc1)NC(=O)c1cnccn1)B(O)O (configuration not stated) + CN1CCN(c2cc(C(=O)Nc3cc4cc(-c5cnn(C)c5)ccc4cn3)ccn2)CC1
Second compound 0.0316 µM
  IC50: 1.8 nM
Second compound 0.1 µM
  IC50: 1.72 nM
Second compound 0.316 µM
  IC50: < 0.949 nM
Second compound 1 µM
  IC50: < 0.949 nM
Second compound 3.16 µM
  IC50: < 0.949 nM
Second compound 10 µM
  IC50: < 0.949 nM
Second compound 0.0316 µM, first compound 0.000949 µM
  viability, T/C: 83.2%
Second compound 0.0316 µM, first compound 0.003 µM
  viability, T/C: 23.3%
Second compound 0.0316 µM, first compound 0.00949 µM
  viability, T/C: 0.24%
Second compound 0.0316 µM, first compound 0.03 µM
  viability, T/C: 0.17%
Second compound 0.0316 µM, first compound 0.0949 µM
  viability, T/C: 0.13%
Second compound 0.0316 µM, first compound 0.3 µM
  viability, T/C: 0.12%
Second compound 0.1 µM, first compound 0.000949 µM
  viability, T/C: 84.3%
Second compound 0.1 µM, first compound 0.003 µM
  viability, T/C: 18.2%
Second compound 0.1 µM, first compound 0.00949 µM
  viability, T/C: 1.22%
Second compound 0.1 µM, first compound 0.03 µM
  viability, T/C: 0.15%
Second compound 0.1 µM, first compound 0.0949 µM
  viability, T/C: 0.19%
Second compound 0.1 µM, first compound 0.3 µM
  viability, T/C: 0.11%
Second compound 0.316 µM, first compound 0.000949 µM
  viability, T/C: 20.7%
Second compound 0.316 µM, first compound 0.003 µM
  viability, T/C: 1.68%
Second compound 0.316 µM, first compound 0.00949 µM
  viability, T/C: 0.49%
Second compound 0.316 µM, first compound 0.03 µM
  viability, T/C: 0.11%
Second compound 0.316 µM, first compound 0.0949 µM
  viability, T/C: 0.9%
Second compound 0.316 µM, first compound 0.3 µM
  viability, T/C: 0.12%
Second compound 1 µM, first compound 0.000949 µM
  viability, T/C: 0.18%
Second compound 1 µM, first compound 0.003 µM
  viability, T/C: 1.45%
Second compound 1 µM, first compound 0.00949 µM
  viability, T/C: 0.95%
Second compound 1 µM, first compound 0.03 µM
  viability, T/C: 0.06%
Second compound 1 µM, first compound 0.0949 µM
  viability, T/C: 0.3%
Second compound 1 µM, first compound 0.3 µM
  viability, T/C: 0.08%
Second compound 3.16 µM, first compound 0.000949 µM
  viability, T/C: 0.24%
Second compound 3.16 µM, first compound 0.003 µM
  viability, T/C: 0.69%
Second compound 3.16 µM, first compound 0.00949 µM
  viability, T/C: 0.24%
Second compound 3.16 µM, first compound 0.03 µM
  viability, T/C: 0.05%
Second compound 3.16 µM, first compound 0.0949 µM
  viability, T/C: 0.07%
Second compound 3.16 µM, first compound 0.3 µM
  viability, T/C: 0.09%
Second compound 10 µM, first compound 0.000949 µM
  viability, T/C: 1.09%
Second compound 10 µM, first compound 0.003 µM
  viability, T/C: 0.98%
Second compound 10 µM, first compound 0.00949 µM
  viability, T/C: 0.26%
Second compound 10 µM, first compound 0.03 µM
  viability, T/C: 2.17%
Second compound 10 µM, first compound 0.0949 µM
  viability, T/C: 0.59%
Second compound 10 µM, first compound 0.3 µM
  viability, T/C: 0.24%
